Several values for one entry are separate records, joined by “and”; a condition that tells them apart may be missing. Equal values may be shown once.
Tested on: CD4+ T cell (C57BL/6) co-cultured with dendritic cell (BALB/C)
Assay: Inhibition test of T-cell proliferation, 1 way mixed lymphocyte reaction (MLR), H3-thymidine incorporation
Type: cell-based, mouse
Settings: for % of inhibition = [cpm (untreated) - cpm(treated)] / cpm (untreated): T cell proliferation, from photo-nonexposed CPM
From the text: It is typically known that the increase of CD4^+ T cells is observed in atopic dermatitis lesion, and cytokines secreted from CD4^+ T cells make the condition of atopic dermatitis worse (DirkJan Hijnen et al., J Invest Dermatol 125:1149-1155, 2005). Therefore, we tried to determine the therapeutic effectiveness of cobalamin derivatives for treatment of atopic dermatitis by examining the changes of T-cell proliferation before and after photolysis of cobalamin derivatives.
When the T cell separated from one mouse strain and the dendritic cell (DC, antigen presenting cell) separated from another mouse strain are mixed together, the immune response by the T cell occurs. This immune response is a tissue incompatibility reaction due to the difference of the genes of MHC molecules of the two strains.
In this experiment, the target cell (DC) derived from BALB/C strain and the CD4^+ T cell (the responder) derived from C57BL/6 (B6) strain are mixed and co-cultured to induce a 1 way MLR. In this process, several types of cobalamin derivatives (cyanocobalamin, hydroxocobalamin, methylcobalamin, adenosylcobalamin) are treated, and then the intensities of the immune response are measured by comparing the T cell proliferation for each of the cobalamin derivative-treated group.
1) Bone marrow derived dendritic cells were isolated from 8 weeks BALB/c mouse as follows.
2) The femur and tibiae were separated from a mouse, and then soaked in PBS. The muscle tissues were removed from them. Then, the bones were soaked in 70% EtOH for 2 minutes for sterilization, and then EtOH was washed off with PBS.
3) A needle of a 10 ml syringe filled with PBS was inserted into ends of the bones and then PBS was injected into the bones to isolate the bone marrow.
4) The obtained bone marrow was made into a single cell suspension by pipetting.
5) 1˜1.5×10^7 of leukocytes were isolated per one femur or one tibia.
6) Culture medium was prepared (RPMI-1640+Penicillin/Streptomycin, L-Glutamin, 2-MercaptoEtOH, 10% Fetal Bovine Serum, Recombinant mouse GM-CSF). 2×10^6 of BM leukocytes were plated onto 100 mm Petri dish with 10 ml of the culture medium. At this time, […] (in case of 20 ng/ml, 5×10^6 U/mg) of rmGM-CSF was added. (Day 0)
7) Day 3, 10 ml of culture medium (including 200 U/ml GM-CSF) was added.
8) Day 6, culture medium replacement: 10 ml of culture medium from the culture plate was taken, and then centrifuged. The obtained cells were released in a fresh medium containing GM-CSF 200 U/ml, and then they were put back into the original culture plate. Through this process, half of the entire culture medium could be changed to a new medium.
9) Day 8, culture medium replacement: Half of the culture medium was replaced in the same way as day 6.
10) Day 9, after collecting BM-DCs by pipetting carefully, and centrifuging at 300 g/RT/5 min, they were poured into 10 ml of fresh culture medium. The BM-DCs were plated on 100 mm tissue culture plate. 100 U/ml of rmGM-CSF and 1 μg/ml of LPS were added to the culture medium. The BM-DCs were fully maturated by culturing for an extra day.
1) The spleen was separated out from C57BL/6 mouse, and was ground by using the nylon mesh in PBS and then centrifuged at 300×g for 4 min.
2) The obtained cell pellet was treated with 5 ml of ACK RBC lysing solution for 5 minutes in RT, and then washed with PBS.
3) After resuspending the cells in 500 μl of MACs buffer (PBS+EDTA/BSA), the cells were stained with 50 μl of anti-CD4 microbead. Then, the CD4^+ T cell (1×10^7 cells) were separated from the cells according to the manual of MACS kit (Miltenyi Company).
1) The experiment for determining MLR response was designed to comprise control group, photo-exposed group, and photo-nonexposed group as follows. Each group was tested in triplicate according to concentration and substance on 3 wells. […]

[1] = 10 μM (lowest concentration), 10 µM
[2] = 500 μM (highest concentration), 500 µM

Row | Compound | % of inhibition = [cpm (untreated) - cpm(treated)] / cpm (untreated) [1] | % of inhibition = [cpm (untreated) - cpm(treated)] / cpm (untreated) (30 μM) | % of inhibition = [cpm (untreated) - cpm(treated)] / cpm (untreated) (100 μM) | % of inhibition = [cpm (untreated) - cpm(treated)] / cpm (untreated) [2] | radioactivity (CPM), single wells of triplicate (photo-nonexposed group, 10 μm) | radioactivity (CPM), single wells of triplicate (photo-nonexposed group, 30 μm) | radioactivity (CPM), single wells of triplicate (photo-nonexposed group, 500 μm) | radioactivity (CPM), single wells of triplicate (photo-nonexposed group, 100 μm) | further results
1 | C/C1=C2/[N-][C@H]([C@H](CC(N)=O)[C@@]2(C)CCC(=O)NC[C@@H](C)OP(=O)([O-])O[C@H]2[C@@H](O)[C@@H](n3cnc4cc(C)c(C)cc43)O[C@@H]2CO)[C@]2(C)N=C(/C(C)=C3N=C(/C=C4N=C1[C@@H](CCC(N)=O)C\4(C)C)[C@@H](CCC(N)=O)[C@]\3(C)CC(N)=O)[C@@H](CCC(N)=O)[C@]2(C)CC(N)=O.[CH2-][C@H]1O[C@@H](n2cnc3c(N)ncnc32)[C@H](O)[C@@H]1O.[Co] [A-co, adenosylcobalamin] | 57.9% and 58.03% and 60.21% | 66.99% and 77.79% and 83.85% | 89.85% and 91.31% and 95.18% | 96.51% and 97.48% and 98.07% | 19094 CPM and 19033 CPM and 18047 CPM | 14064 CPM and 10071 CPM and 7326 CPM | 1585 CPM and 1141 CPM and 875 CPM |  | radioactivity (CPM), single wells of triplicate (photo-exposed group (under the light for 1 hr before treatment), 3 μM, listed as Photo-A-co): 26305 CPM and 14772 CPM and 24306 CPM; radioactivity (CPM), single wells of triplicate (photo-exposed group (under the light for 1 hr before treatment), 10 μM, listed as Photo-A-co): 2225 CPM and 3123 CPM and 1922 CPM; radioactivity (CPM), single wells of triplicate (photo-exposed group (under the light for 1 hr before treatment), 30 μM, listed as Photo-A-co): 997 CPM and 1091 CPM and 1391 CPM; radioactivity (CPM), single wells of triplicate (photo-exposed group (under the light for 1 hr before treatment), 100 μM, listed as Photo-A-co): 696 CPM and 1259 CPM and 1333 CPM
2 | C/C1=C2/[N-][C@H]([C@H](CC(N)=O)[C@@]2(C)CCC(=O)NC[C@@H](C)OP(=O)([O-])O[C@H]2[C@@H](O)[C@@H](n3cnc4cc(C)c(C)cc43)O[C@@H]2CO)[C@]2(C)N=C(/C(C)=C3N=C(/C=C4N=C1[C@@H](CCC(N)=O)C\4(C)C)[C@@H](CCC(N)=O)[C@]\3(C)CC(N)=O)[C@@H](CCC(N)=O)[C@]2(C)CC(N)=O.[Co+3].[OH-] [H-co, hydroxocobalamin] |  | 25.76% and 23.13% and 24.28% | 37.0706% and 42.13% and 34.41% | 67.35% and 75.19% and 70.9% | 41967 CPM and 33493 CPM and 38243 CPM | 33669 CPM and 34662 CPM and 34340 CPM | 14806 CPM and 11254 CPM and 13198 CPM | 28541 CPM and 26247 CPM and 29747 CPM | radioactivity (CPM), single wells of triplicate (photo-exposed group (under the light for 1 hr before treatment), 3 μM, listed as Photo-H-co): 52932 CPM and 46313 CPM and 40358 CPM; radioactivity (CPM), single wells of triplicate (photo-exposed group (under the light for 1 hr before treatment), 10 μM, listed as Photo-H-co): 42615 CPM and 39452 CPM and 33765 CPM; radioactivity (CPM), single wells of triplicate (photo-exposed group (under the light for 1 hr before treatment), 30 μM, listed as Photo-H-co): 34824 CPM and 37105 CPM and 32225 CPM; radioactivity (CPM), single wells of triplicate (photo-exposed group (under the light for 1 hr before treatment), 100 μM, listed as Photo-H-co): 37189 CPM and 23765 CPM and 30994 CPM
3 | C/C1=C2/[N-][C@H]([C@H](CC(N)=O)[C@@]2(C)CCC(=O)NC[C@H](C)OP(=O)([O-])O[C@H]2[C@@H](O)[C@@H](n3cnc4cc(C)c(C)cc43)O[C@@H]2CO)[C@]2(C)N=C(/C(C)=C3N=C(/C=C4N=C1[C@@H](CCC(N)=O)C\4(C)C)[C@@H](CCC(N)=O)[C@]\3(C)CC(N)=O)[C@@H](CCC(N)=O)[C@]2(C)CC(N)=O.[CH3-].[Co+3] [M-co, methylcobalamin] |  |  |  | 49.98% and 36.23% and 45.1184% | 37594 CPM and 43624 CPM and 44951 CPM | 36641 CPM and 28896 CPM and 40298 CPM | 22687 CPM and 28924 CPM and 24891 CPM | 37066 CPM and 30678 CPM and 39514 CPM | radioactivity (CPM), single wells of triplicate (photo-exposed group (under the light for 1 hr before treatment), 3 μM, listed as Photo-M-co): 33467 CPM and 32885 CPM and 50368 CPM; radioactivity (CPM), single wells of triplicate (photo-exposed group (under the light for 1 hr before treatment), 10 μM, listed as Photo-M-co): 42973 CPM and 43693 CPM and 41162 CPM; radioactivity (CPM), single wells of triplicate (photo-exposed group (under the light for 1 hr before treatment), 30 μM, listed as Photo-M-co): 18844 CPM and 28639 CPM and 29522 CPM
4 | cyanocobalamin [C-co] | 4.28% and 11.95% and 9.071% |  |  |  | 43413 CPM and 39935 CPM and 41240 CPM | 42882 CPM and 30722 CPM and 40187 CPM | 36303 CPM and 40107 CPM | 41663 CPM and 48408 CPM and 39928 CPM | radioactivity (CPM), single wells of triplicate (photo-exposed group (under the light for 1 hr before treatment), 3 μM, listed as Photo-C-co): 41161 CPM and 57338 CPM and 56253 CPM; radioactivity (CPM), single wells of triplicate (photo-exposed group (under the light for 1 hr before treatment), 10 μM, listed as Photo-C-co): 39141 CPM and 36381 CPM and 39492 CPM; radioactivity (CPM), single wells of triplicate (photo-exposed group (under the light for 1 hr before treatment), 30 μM, listed as Photo-C-co): 38702 CPM and 34451 CPM and 34078 CPM; radioactivity (CPM), single wells of triplicate (photo-exposed group (under the light for 1 hr before treatment), 100 μM, listed as Photo-C-co): 50511 CPM and 27692 CPM and 30567 CPM
